Experiments:
[1] = Antiproliferative activity against human T47D cells measured after 72 hrs by CCK8 assay; format: functional, cell-based
[2] = Antiproliferative activity against human DU145 cells measured after 72 hrs by CCK8 assay; format: functional, cell-based; details: DU-145, 72 h
[3] = Antiproliferative activity against human HCT15 cells measured after 72 hrs by CCK8 assay; format: functional, cell-based; details: HCT-15, 72 h
[4] = Antiproliferative activity against human MCF7 cells measured after 72 hrs by CCK8 assay; format: functional, cell-based; details: MCF7, 72 h
[5] = target: DNA topoisomerase 2-alpha (Homo sapiens) (UniProt P11388); assay: Poison activity at topoisomerase-2 alpha in human HCT15 cells assessed as DNA damage by measuring DNA tail length at 5 uM measured after 24 hrs by alkaline comet assay; format: cell-based; details: HCT-15
Chain of DNA topoisomerase 2-alpha (Homo sapiens) (P11388 whole entry): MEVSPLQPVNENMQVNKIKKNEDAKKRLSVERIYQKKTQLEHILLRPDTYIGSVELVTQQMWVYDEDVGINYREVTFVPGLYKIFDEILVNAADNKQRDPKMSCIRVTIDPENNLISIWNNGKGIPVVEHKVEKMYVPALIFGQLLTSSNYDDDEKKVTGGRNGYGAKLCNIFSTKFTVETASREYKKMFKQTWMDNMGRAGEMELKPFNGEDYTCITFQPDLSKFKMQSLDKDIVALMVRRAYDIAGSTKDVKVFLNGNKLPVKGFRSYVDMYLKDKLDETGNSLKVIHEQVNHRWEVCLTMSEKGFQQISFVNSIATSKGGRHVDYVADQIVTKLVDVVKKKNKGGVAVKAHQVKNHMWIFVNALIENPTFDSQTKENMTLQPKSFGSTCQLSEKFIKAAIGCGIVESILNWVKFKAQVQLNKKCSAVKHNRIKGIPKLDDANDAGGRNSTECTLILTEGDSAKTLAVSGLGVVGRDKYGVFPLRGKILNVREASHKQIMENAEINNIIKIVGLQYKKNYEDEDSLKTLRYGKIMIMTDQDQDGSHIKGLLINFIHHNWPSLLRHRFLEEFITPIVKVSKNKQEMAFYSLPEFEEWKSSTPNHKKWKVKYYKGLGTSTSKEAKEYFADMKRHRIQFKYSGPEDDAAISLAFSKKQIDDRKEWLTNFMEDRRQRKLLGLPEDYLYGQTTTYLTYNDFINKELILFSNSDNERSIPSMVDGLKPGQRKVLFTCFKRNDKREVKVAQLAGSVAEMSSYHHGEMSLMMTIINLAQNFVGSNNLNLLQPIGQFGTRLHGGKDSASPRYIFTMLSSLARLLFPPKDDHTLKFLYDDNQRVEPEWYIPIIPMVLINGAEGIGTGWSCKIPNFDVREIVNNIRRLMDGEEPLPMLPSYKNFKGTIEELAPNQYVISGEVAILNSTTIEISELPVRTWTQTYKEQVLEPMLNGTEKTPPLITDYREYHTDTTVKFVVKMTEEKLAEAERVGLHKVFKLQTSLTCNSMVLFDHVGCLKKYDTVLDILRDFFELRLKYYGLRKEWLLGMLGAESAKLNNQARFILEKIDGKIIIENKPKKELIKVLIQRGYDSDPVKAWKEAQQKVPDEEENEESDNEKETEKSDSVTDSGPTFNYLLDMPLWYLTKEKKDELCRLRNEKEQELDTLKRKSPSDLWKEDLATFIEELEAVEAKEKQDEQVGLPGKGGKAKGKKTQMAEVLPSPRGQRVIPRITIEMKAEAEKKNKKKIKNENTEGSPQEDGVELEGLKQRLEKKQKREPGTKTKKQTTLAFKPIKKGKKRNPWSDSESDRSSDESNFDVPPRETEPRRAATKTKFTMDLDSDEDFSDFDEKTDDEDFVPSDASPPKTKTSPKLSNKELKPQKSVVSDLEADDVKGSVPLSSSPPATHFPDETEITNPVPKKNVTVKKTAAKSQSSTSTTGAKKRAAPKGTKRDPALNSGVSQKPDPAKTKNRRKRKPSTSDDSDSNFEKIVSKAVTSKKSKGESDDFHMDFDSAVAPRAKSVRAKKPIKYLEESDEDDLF

[6] = target: DNA topoisomerase 2-alpha (Homo sapiens) (UniProt P11388); assay: Poison activity at topoisomerase-2 alpha in human HCT15 cells assessed as DNA damage by measuring DNA tail length at 10 uM measured after 24 hrs by alkaline comet assay; format: cell-based; details: HCT-15
[7] = target: DNA topoisomerase 2-alpha (Homo sapiens) (UniProt P11388); assay: Poison activity at topoisomerase-2 alpha in human T47D cells assessed as DNA damage by measuring DNA tail length at 5 uM measured after 24 hrs by alkaline comet assay; format: cell-based
[8] = target: DNA topoisomerase 2-alpha (Homo sapiens) (UniProt P11388); assay: Poison activity at topoisomerase-2 alpha in human T47D cells assessed as DNA damage by measuring DNA tail length at 10 uM measured after 24 hrs by alkaline comet assay; format: cell-based
[9] = Cell cycle arrest in human HCT15 cells assessed as accumulation at G2/M phase after 20 hrs by DAPI staining-based cell analyzer; format: functional; details: HCT-15
[10] = Cell cycle arrest in human T47D cells assessed as accumulation at G2/M phase after 24 hrs by DAPI staining-based cell analyzer; format: functional
[11] = Cell cycle arrest in human HCT15 cells assessed as accumulation at G1 phase at 1 uM after 20 hrs by DAPI staining-based cell analyzer (reference value: 40%); format: functional; details: HCT-15
[12] = Cell cycle arrest in human HCT15 cells assessed as accumulation at S phase at 1 uM after 20 hrs by DAPI staining-based cell analyzer (reference value: 34%); format: functional; details: HCT-15
[13] = Cell cycle arrest in human HCT15 cells assessed as accumulation at G2/M phase at 1 uM after 20 hrs by DAPI staining-based cell analyzer (reference value: 13%); format: functional; details: HCT-15
[14] = Cell cycle arrest in human HCT15 cells assessed as accumulation at G1 phase at 0.5 uM after 20 hrs by DAPI staining-based cell analyzer (reference value: 40%); format: functional; details: HCT-15
[15] = Cell cycle arrest in human HCT15 cells assessed as accumulation at S phase at 0.5 uM after 20 hrs by DAPI staining-based cell analyzer (reference value: 34%); format: functional; details: HCT-15
[16] = Cell cycle arrest in human HCT15 cells assessed as accumulation at G2/M phase at 0.5 uM after 20 hrs by DAPI staining-based cell analyzer (reference value: 13%); format: functional; details: HCT-15
[17] = Cell cycle arrest in human T47D cells assessed as accumulation at G1 phase at 1 uM after 24 hrs by DAPI staining-based cell analyzer (reference value: 51%); format: functional
[18] = Cell cycle arrest in human T47D cells assessed as accumulation at S phase at 1 uM after 24 hrs by DAPI staining-based cell analyzer (reference value: 26%); format: functional
[19] = Cell cycle arrest in human T47D cells assessed as accumulation at G2/M phase at 1 uM after 24 hrs by DAPI staining-based cell analyzer (reference value: 15%); format: functional
[20] = Cell cycle arrest in human T47D cells assessed as accumulation at G1 phase at 0.5 uM after 24 hrs by DAPI staining-based cell analyzer (reference value: 51%); format: functional
[21] = Cell cycle arrest in human T47D cells assessed as accumulation at S phase at 0.5 uM after 24 hrs by DAPI staining-based cell analyzer (reference value: 26%); format: functional
[22] = Cell cycle arrest in human T47D cells assessed as accumulation at G2/M phase at 0.5 uM after 24 hrs by DAPI staining-based cell analyzer (reference value: 13%); format: functional

COc1cc([C@@H]2c3cc4c(cc3[C@@H](O[C@@H]3O[C@@H]5CO[C@@H](C)O[C@H]5[C@H](O)[C@H]3O)[C@H]3COC(=O)[C@H]23)OCO4)cc(OC)c1O [ETOPOSIDE]
IC50 [1]: 4.85 µM | IC50 [2]: 2.19 µM | IC50 [3]: 1.27 µM | IC50 [4]: 35.6 µM | Activity [5]: 37.5 pixel | Activity [6]: 46.3 pixel | Activity [7]: 62.7 pixel | Activity [8]: 66.2 pixel | Activity [9]: Dose-dependent effect | Activity [10]: Dose-dependent effect | Activity [11]: 17% | Activity [12]: 25% | Activity [13]: 32% | Activity [14]: 21% | Activity [15]: 26% | Activity [16]: 29% | Activity [17]: 35% | Activity [18]: 22% | Activity [19]: 33% | Activity [20]: 39% | Activity [21]: 24% | Activity [22]: 31%

Reference: ChEMBL document CHEMBL3877252, “Fluorescein hydrazones: A series of novel non-intercalative topoisomerase IIα catalytic inhibitors induce G1 arrest and apoptosis in breast and colon cancer cells” (Eur J Med Chem, 2017)
